Experimental findings from US20260272944A1, “PYRIDO[3,4-D]PYRIMIDINONE AND PYRIMDLLNE ARYL HYDROCARBON RECEPTOR ANTAGONISTS AND USES THEREOF” (ALLIANTHERA (SUZHOU) BIOPHARMACEUTICAL CO., LTD., priority 2023, published 2026) are described below.

The target of this assay is T1, Human Aryl Hydrocarbon Receptor (AhR) (Homo sapiens, UniProt P35869).
T1 construct: purchased INDIGO Bioscience IB06001-32; host or cells: AhR Reporter Cell (the kit's proprietary reporter cells)
T1 sequence (P35869 11-848): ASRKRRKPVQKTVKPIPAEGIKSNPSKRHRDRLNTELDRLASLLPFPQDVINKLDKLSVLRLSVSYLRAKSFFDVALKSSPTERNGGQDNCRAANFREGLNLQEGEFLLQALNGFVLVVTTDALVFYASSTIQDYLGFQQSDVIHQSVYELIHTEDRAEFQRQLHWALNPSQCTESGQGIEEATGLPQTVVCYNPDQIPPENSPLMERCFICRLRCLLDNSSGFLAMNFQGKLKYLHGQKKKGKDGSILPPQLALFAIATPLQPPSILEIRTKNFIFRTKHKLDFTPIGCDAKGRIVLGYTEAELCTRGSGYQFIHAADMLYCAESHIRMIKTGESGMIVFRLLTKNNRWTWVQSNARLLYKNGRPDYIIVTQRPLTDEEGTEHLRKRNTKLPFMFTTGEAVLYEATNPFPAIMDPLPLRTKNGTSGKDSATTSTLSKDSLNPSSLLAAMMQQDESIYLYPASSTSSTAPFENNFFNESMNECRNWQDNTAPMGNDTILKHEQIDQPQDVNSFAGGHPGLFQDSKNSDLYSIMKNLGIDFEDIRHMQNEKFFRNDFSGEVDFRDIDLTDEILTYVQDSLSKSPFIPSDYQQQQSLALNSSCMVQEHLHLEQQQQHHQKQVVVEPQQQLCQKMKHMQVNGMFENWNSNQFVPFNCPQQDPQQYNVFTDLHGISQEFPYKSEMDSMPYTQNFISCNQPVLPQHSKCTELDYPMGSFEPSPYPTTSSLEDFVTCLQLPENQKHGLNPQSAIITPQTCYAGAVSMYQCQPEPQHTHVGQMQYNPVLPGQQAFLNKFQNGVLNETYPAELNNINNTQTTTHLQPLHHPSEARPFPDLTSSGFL
Kind of assay: AhR reporter assay (Human Aryl Hydrocarbon Receptor (AhR) Reporter Assay System, INDIGO Bioscience). Format: cell-based. Conditions: AHR inhibition at 10 nM test compound; AhR Reporter Cells activated with 200 μM kynurenic acid, 24 hours; firefly luciferase; normalized by positive and negative controls. Here is the method: The AhR reporter assay was performed following the protocol of the Human Aryl Hydrocarbon Receptor (AhR) Reporter Assay System (INDIGO Bioscience, #IB06001-32). AhR Reporter Cell was thawed and pre-incubated in Cell Recovery Medium (CRM) for 6 hours. The media was then removed and the cells were incubated with Compound Screening Medium (CSM) supplemented with 200 μM kynurenic acid for 24 hours in the absence (negative control) or presence of 10 nM test compounds. For positive inhibition control, cells activated with 200 μM kynurenic acid were incubated in the presence of literature AHR antagonists; alternatively un-activated cells were used as positive inhibition control. Following 24 hours incubation, the media was removed and Luciferase Detection Reagent (LDR) added. The firefly luciferase activity was quantified using a plate reader. Results were normalized by positive and negative controls.
The results of AHR inhibition at 10 nM for compounds as disclosed herein is reported in the below table.
For orientation: A reporter such as luciferase makes a cellular process visible.

Molecules are shown by their SMILES.

A word on the inhibition: it is the drop in the measured response relative to a control, in per cent. On to `C[C@@H](CO)n1cnc2c(-c3cnn(C)c3)nc(-c3ccc(N4CCN(S(C)(=O)=O)CC4)cc3)cc2c1=O` [Compound 31], for which the inhibition at 0.01 µM was determined as 24%. Regarding `C[C@@H](CO)n1cnc2c(-c3cnn(C)c3)nc(-c3ccc(C(=O)N4CCNCC4)cc3)cc2c1=O` [Compound 32], the inhibition at 0.01 µM is -16%. On to `C[C@@H](CO)n1cnc2c(-c3cnn(C)c3)nc(-c3ccc(C(=O)N4CCC(N)C4)cc3)cc2c1=O` (stereo partly drawn) [Compound 34], for which the inhibition at 0.01 µM was determined as 6%. The same measure for `C[C@@H](CO)n1cnc2c(-c3cnn(C)c3)nc(-c3ccc(C(=O)N4CCC(O)CC4)cc3)cc2c1=O` [Compound 35]: 5%; for `C[C@@H](CO)n1cnc2c(-c3cnn(C)c3)nc(-c3ccc(NC(=O)CN4CCOCC4)nc3)cc2c1=O` [Compound 39]: -4%. As for `C[C@@H](CO)n1cnc2c(-c3cnn(C)c3)nc(-c3ccc(-c4cncc(F)c4)nc3)cc2c1=O` [Compound 41], the inhibition at 0.01 µM is 39%.

For `C[C@@H](CO)n1cnc2c(-c3cnn(C)c3)nc(-c3ccc(NC(=O)CN4CCOCC4)cc3)cc2c1=O` [Compound 42], the inhibition at 0.01 µM worked out at 16%. Next, `C[C@@H](CO)n1cnc2c(-c3cnn(C)c3)nc(-c3ccc(-c4ccc(=O)n(C)c4)cc3)cc2c1=O` [Compound 44]: 44%; `C[C@@H](CO)n1cnc2c(-c3cnn(C)c3)nc(N3Cc4cccc(F)c4C3)cc2c1=O` [Compound 52]: 35%; `Cc1cc(N2CCOCC2)ccc1-c1cc2c(=O)n([C@@H](C)CO)cnc2c(-c2cnn(C)c2)n1` [Compound 54]: 1%.

With `C[C@@H](CO)n1cnc2c(-c3cnn(C)c3)nc(N3Cc4ccc(F)cc4C3)cc2c1=O` [Compound 56], the inhibition at 0.01 µM came to 99%.

On to `Cc1cc(-c2cc3c(=O)n([C@@H](C)CO)cnc3c(-c3cnn(C)c3)n2)ccc1N1CCOCC1` [Compound 57], for which the inhibition at 0.01 µM was determined as 29%. In the case of `C[C@@H](CO)NC(=O)c1cc(-c2ccc(-c3ccccc3F)nc2)nc(-c2cnn(C)c2)n1` [Compound 59], the inhibition at 0.01 µM came to 24%.

`C[C@@H](CO)NC(=O)c1cc(N2CCN(c3ccc(F)cc3)CC2)nc(-c2cnn(C)c2)n1` [Compound 60]: the inhibition at 0.01 µM was determined as 21%. For the compound `C[C@@H](CO)NC(=O)c1cc(-c2ccc(-c3ccc(F)cc3)nc2)nc(-c2cnn(C)c2)n1` [Compound 61], the inhibition at 0.01 µM amounted to 62%. The same measure for `C[C@@H](CO)NC(=O)c1cc(-c2ccc(N3CCOCC3)cc2)nc(-c2cnn(C)c2)n1` [Compound 62]: 29%; for `C[C@@H](CO)NC(=O)c1cc(N2Cc3ccccc3C2)nc(-c2cnn(C)c2)n1` [Compound 63]: 58%; for `C[C@@H](CO)NC(=O)c1cc(N2Cc3ccccc3C2=O)nc(-c2cnn(C)c2)n1` [Compound 64]: 49%. The same measure for `C[C@@H](CO)NC(=O)c1cc(N2CCN(c3ccc(F)cc3)CC2)nc(-c2cnn(C(F)(F)F)c2)n1` [Compound 65]: 7%; for `C[C@@H](CO)NC(=O)c1cc(N2CCN(c3ccc(F)cc3)CC2)nc(-c2cccc(F)c2)n1` [Compound 66]: 69%; for `Cc1nn(C)c2cc(-c3cc(C(=O)N[C@@H](C)CO)nc(-c4cnn(C)c4)n3)ccc12` [Compound 67]: 33%. Turning to `C[C@@H](CO)NC(=O)c1cc(-c2ccc(-c3cccc(F)c3)nc2)nc(-c2cnn(C)c2)n1` [Compound 68], the inhibition at 0.01 µM came to 62%. Consider `C[C@@H](CO)NC(=O)c1cc(-c2ccc(-c3ccc(F)nc3)nc2)nc(-c2cnn(C)c2)n1` [Compound 69], for which the inhibition at 0.01 µM amounted to 60%. For the compound `C[C@@H](CO)NC(=O)c1cc(-c2ccc(-c3ccc(Cl)cc3)nc2)nc(-c2cnn(C)c2)n1` [Compound 70], the inhibition at 0.01 µM came out at 87%. As to `C[C@@H](CO)NC(=O)c1cc(-c2ccc(C3CCOCC3)cc2)nc(-c2cnn(C)c2)n1` [Compound 71], the inhibition at 0.01 µM was determined as 37%. The same measure for `C[C@@H](CO)NC(=O)c1cc(N2CCN(c3ccc(F)cc3)[C@@H](C)C2)nc(-c2cnn(C)c2)n1` [Compound 72]: 13%; for `C[C@@H]1CN(c2cc(C(=O)N[C@@H](C)CO)nc(-c3cnn(C)c3)n2)CCN1c1ccc(F)cc1` [Compound 73]: 23%; for `C[C@@H](CO)NC(=O)c1cc(N2CC3CCC(C2)N3c2ccc(F)cc2)nc(-c2cnn(C)c2)n1` [Compound 74]: 13%.

As for `C[C@@H](CO)NC(=O)c1cc(N2CCN(C(=O)c3ccc(F)cc3)CC2)nc(-c2cnn(C)c2)n1` [Compound 75], the inhibition at 0.01 µM worked out at 24%. The same measure for `C[C@@H]1CN(c2ccc(F)cc2)CCN1c1cc(C(=O)N[C@@H](C)CO)nc(-c2cnn(C)c2)n1` [Compound 76]: 1%; for `C[C@@H](CO)NC(=O)c1cc(N2CCN(c3ccc(F)cc3)C[C@@H]2C)nc(-c2cnn(C)c2)n1` [Compound 77]: 4%. The same measure for `C[C@@H](CO)NC(=O)c1cc(N2Cc3cccc(F)c3C2)nc(-c2cnn(C)c2)n1` [Compound 88]: 21%.

With `C[C@@H](CO)NC(=O)c1cc(-c2ccc(N3CCOCC3)nc2)nc(-c2cnn(C)c2)n1` [Compound 90], the inhibition at 0.01 µM came out at 1%. As to `C[C@@H](CO)NC(=O)c1cc(-c2ccc(N3CCN(S(C)(=O)=O)CC3)cc2)nc(-c2cnn(C)c2)n1` [Compound 91], the inhibition at 0.01 µM is 7%. Next, `C[C@@H](CO)NC(=O)c1cc(N2Cc3ccc(F)cc3C2)nc(-c2cnn(C)c2)n1` [Compound 93]: 99%; `Cc1cc(-c2cc(C(=O)N[C@@H](C)CO)nc(-c3cnn(C)c3)n2)ccc1N1CCOCC1` [Compound 96]: 10%; `C[C@@H](CO)NC(=O)c1cc(-c2ccc(NC(=O)CN3CCOCC3)cc2)nc(-c2cnn(C)c2)n1` [Compound 98]: 5%. The same measure for `C[C@@H](CO)NC(=O)c1cc(-c2ccc(C(=O)N3CCC(N)C3)cc2)nc(-c2cnn(C)c2)n1` (stereo partly drawn) [Compound 105]: -3%; for `C[C@@H](CO)NC(=O)c1cc(-c2ccc(-c3ccc(=O)n(C)c3)cc2)nc(-c2cnn(C)c2)n1` [Compound 112]: 10%. As to `C[C@@H](CO)NC(=O)c1cc(N2Cc3cccnc3C2)nc(-c2cnn(C)c2)n1` [Compound 117], the inhibition at 0.01 µM came to 46%.

Take `C[C@@H](CO)n1cnc2c(-c3cnn(C)c3)nc(-c3ccc(-c4cnc(N)nc4)nc3)cc2c1=O` [Compound 119]: the inhibition at 0.01 µM came to 2%. Turning to `C[C@@H](CO)n1cnc2c(-c3cnn(C)c3)nc(-c3ccc(C(=O)N4CCN(S(C)(=O)=O)CC4)cc3)cc2c1=O` [Compound 120], the inhibition at 0.01 µM was -10%. Next, `C[C@@H](CO)n1cnc2c(-c3cnn(C)c3)nc(N3CCN(c4ncccn4)CC3)cc2c1=O` [Compound 121]: 4%; `C[C@@H](CO)n1cnc2c(-c3cnn(C)c3)nc(N3CCN(c4ccc(F)cc4F)CC3)cc2c1=O` [Compound 122]: 46%.

For `C[C@@H](CO)n1cnc2c(-c3cnn(C)c3)nc(N3CCN(c4ccccc4)CC3)cc2c1=O` [Compound 123], the inhibition at 0.01 µM is 91%.

Consider `C[C@@H](CO)n1cnc2c(-c3cnn(C)c3)nc(N3Cc4cccnc4C3)cc2c1=O` [Compound 124], for which the inhibition at 0.01 µM is 77%. The same measure for `C[C@H](CO)NC(=O)c1cc(N2Cc3ccccc3C2)nc(-c2cnn(C)c2)n1` [Compound 125]: 23%.

`C[C@H](NC(=O)c1cc(N2Cc3ccccc3C2)nc(-c2cnn(C)c2)n1)C(=O)O` [Compound 126]: the inhibition at 0.01 µM worked out at 5%. Next, `C[C@@H](CNS(=O)(=O)C1CC1)NC(=O)c1cc(N2Cc3ccccc3C2)nc(-c2cnn(C)c2)n1` [Compound 127]: 52%. In the case of `C[C@@H](CO)n1cnc2c(-n3nc(N)ccc3=O)nc(-c3cncc(F)c3)cc2c1=O` [Compound 128], the inhibition at 0.01 µM was determined as 4%. The same measure for `C[C@@H](CO)n1cnc2c(-n3cncc3C3CC3)nc(-c3cncc(F)c3)cc2c1=O` [Compound 129]: 7%.
